Results: patent US8871753B2, “Macrocyclic compounds and their use as kinase inhibitors” (Incyte Corporation, priority 2008, dated 2014)
Counter-ions that a name gives are not always drawn. Like-named read-outs stand apart in the source and are kept apart here.

Experiments:
Format in all cases: biochemical
TYK2 = TYK2 (Homo sapiens, UniProt P29597); test: TYK2 kinase inhibition (Table A1)
[1] = biological target: T1, human JAK3 (a.a. 781-1124) (Homo sapiens, UniProt P52333); test: In vitro JAK kinase assay (HTRF, phosphorylation of a biotinylated peptide), JAK3
T1 construct: JAK3 (a.a. 781-1124); His tag (N); made in house; host or cells: insect cells (baculovirus)
T1 sequence (P52333 781-1124): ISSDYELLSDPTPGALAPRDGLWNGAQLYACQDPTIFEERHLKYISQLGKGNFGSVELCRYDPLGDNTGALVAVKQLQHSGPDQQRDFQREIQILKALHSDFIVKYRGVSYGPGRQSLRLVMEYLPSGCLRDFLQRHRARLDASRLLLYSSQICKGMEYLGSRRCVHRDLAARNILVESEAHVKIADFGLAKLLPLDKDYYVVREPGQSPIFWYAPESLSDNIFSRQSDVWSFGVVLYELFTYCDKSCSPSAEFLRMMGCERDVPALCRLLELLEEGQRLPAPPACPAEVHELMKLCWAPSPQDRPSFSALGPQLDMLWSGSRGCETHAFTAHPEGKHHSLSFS
How it was run: (§1)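 Kinase reactions ran at room temperature for 1 h with ATP matched per isoform (JAK1 90 μM, JAK2 30 μM, JAK3 3 μM). After an EDTA stop, the phosphorylated biotin-peptide was read by HTRF using Eu-Py20 and SA-APC after 40 min binding.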

[2] = biological target: T2, Recombinant Human Anaplastic Lymphoma Kinase (Homo sapiens, UniProt Q9UM73); test: ALK HTRF kinase assay
T2 construct: purchased Invitrogen, Carlsbad, Calif
T2 sequence (Q9UM73 19-1620): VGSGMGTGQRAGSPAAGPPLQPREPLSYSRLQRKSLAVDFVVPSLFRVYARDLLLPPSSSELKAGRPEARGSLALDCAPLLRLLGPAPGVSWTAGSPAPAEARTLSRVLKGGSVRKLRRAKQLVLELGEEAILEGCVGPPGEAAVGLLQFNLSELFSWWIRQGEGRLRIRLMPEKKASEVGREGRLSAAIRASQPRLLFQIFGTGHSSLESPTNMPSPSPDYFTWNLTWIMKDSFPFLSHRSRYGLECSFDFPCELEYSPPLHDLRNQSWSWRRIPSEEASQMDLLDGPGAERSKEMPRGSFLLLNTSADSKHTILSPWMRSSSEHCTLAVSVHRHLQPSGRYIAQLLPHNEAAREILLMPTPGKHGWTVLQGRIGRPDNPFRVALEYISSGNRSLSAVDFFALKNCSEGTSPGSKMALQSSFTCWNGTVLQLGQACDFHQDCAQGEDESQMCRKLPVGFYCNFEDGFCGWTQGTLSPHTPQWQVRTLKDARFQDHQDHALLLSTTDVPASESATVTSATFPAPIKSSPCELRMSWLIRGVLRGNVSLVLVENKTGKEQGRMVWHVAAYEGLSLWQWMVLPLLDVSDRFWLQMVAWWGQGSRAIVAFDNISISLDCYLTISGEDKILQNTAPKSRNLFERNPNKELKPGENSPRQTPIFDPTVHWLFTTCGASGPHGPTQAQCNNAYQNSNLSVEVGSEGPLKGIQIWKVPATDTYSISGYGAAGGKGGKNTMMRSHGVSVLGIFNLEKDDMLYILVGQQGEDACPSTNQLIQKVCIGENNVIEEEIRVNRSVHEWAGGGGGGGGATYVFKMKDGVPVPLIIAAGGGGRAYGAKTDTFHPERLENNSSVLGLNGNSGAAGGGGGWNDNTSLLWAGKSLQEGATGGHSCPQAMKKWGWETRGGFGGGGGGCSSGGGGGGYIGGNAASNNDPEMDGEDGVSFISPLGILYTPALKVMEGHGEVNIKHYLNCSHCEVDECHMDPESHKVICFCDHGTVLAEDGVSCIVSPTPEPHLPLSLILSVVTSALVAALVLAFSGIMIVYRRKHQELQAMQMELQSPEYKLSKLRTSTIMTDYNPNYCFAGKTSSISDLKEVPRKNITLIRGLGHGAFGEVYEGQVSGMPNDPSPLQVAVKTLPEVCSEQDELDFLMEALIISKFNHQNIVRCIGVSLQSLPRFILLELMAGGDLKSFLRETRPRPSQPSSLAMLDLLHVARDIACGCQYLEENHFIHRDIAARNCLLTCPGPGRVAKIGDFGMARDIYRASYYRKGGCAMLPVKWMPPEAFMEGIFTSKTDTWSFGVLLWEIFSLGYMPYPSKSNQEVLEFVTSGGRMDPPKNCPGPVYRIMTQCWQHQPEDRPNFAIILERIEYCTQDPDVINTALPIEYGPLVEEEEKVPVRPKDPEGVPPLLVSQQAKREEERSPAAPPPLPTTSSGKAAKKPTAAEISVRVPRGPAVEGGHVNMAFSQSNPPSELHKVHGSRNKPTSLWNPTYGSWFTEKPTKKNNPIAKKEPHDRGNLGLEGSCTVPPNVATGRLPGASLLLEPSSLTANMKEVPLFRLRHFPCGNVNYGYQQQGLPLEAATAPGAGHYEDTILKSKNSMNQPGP
How it was run: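 Kinase activity of the recombinant human protein is measured on a biotinylated peptide, with a Eu-W1024 anti-phosphotyrosine antibody and streptavidin-allophycocyanin generating the homogeneous time-resolved fluorescence signal. Inhibition curves are fitted to yield IC50.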

[3] = biological target: T3, human JAK1 (a.a. 837-1142) (Homo sapiens, UniProt P23458); test: In vitro JAK kinase assay (HTRF, phosphorylation of a biotinylated peptide), JAK1; conditions: read-out: JAK1 IC50
T3 construct: human JAK1 (a.a. 837-1142); His tag (N); made in house; host or cells: insect cells (baculovirus)
T3 sequence (P23458 849-1154): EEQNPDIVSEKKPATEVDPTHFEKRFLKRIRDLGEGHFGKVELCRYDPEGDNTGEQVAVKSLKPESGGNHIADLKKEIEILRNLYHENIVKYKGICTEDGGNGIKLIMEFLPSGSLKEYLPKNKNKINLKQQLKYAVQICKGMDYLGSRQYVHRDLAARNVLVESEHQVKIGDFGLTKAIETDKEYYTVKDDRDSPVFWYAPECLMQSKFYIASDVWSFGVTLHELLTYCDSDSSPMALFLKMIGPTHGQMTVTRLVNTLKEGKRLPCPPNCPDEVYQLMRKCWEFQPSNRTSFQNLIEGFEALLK
How it was run: as §1

[4] = biological target: T4, human JAK2 (a.a. 828-1132) (Homo sapiens, UniProt O60674); test: In vitro JAK kinase assay (HTRF, phosphorylation of a biotinylated peptide), JAK2
T4 construct: JAK2 (a.a. 828-1132); His tag (N); made in house; host or cells: insect cells (baculovirus)
T4 sequence (O60674 828-1132): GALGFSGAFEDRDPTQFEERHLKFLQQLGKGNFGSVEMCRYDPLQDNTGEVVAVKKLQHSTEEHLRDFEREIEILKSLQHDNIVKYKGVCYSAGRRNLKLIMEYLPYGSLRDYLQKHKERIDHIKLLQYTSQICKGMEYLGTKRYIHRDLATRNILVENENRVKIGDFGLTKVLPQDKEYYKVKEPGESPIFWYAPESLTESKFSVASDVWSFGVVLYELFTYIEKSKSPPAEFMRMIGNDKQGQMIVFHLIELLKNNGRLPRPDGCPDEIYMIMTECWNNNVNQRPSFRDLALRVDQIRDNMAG
How it was run: as §1

[5] = compound at a concentration of 500 nM or 1 mM (not specified), cells shown as percentage
[6] = percentage inhibition of the example compound at a concentration of 500 nM or 1 mM (not specified which)
[7] = method AA1 (3 μM ATP) or AA2 (1000 μM ATP), not stated per value
[8] = compound at 500 nM or 1 mM, 90 μM ATP
[9] = method AA1 (90 μM ATP) or AA2 (1000 μM ATP), not stated per value
[10] = method AA1 (30 μM ATP) or AA2 (1000 μM ATP), not stated per value
[11] = Table B1, cells without percent sign

Chain of TYK2 (P29597 whole entry): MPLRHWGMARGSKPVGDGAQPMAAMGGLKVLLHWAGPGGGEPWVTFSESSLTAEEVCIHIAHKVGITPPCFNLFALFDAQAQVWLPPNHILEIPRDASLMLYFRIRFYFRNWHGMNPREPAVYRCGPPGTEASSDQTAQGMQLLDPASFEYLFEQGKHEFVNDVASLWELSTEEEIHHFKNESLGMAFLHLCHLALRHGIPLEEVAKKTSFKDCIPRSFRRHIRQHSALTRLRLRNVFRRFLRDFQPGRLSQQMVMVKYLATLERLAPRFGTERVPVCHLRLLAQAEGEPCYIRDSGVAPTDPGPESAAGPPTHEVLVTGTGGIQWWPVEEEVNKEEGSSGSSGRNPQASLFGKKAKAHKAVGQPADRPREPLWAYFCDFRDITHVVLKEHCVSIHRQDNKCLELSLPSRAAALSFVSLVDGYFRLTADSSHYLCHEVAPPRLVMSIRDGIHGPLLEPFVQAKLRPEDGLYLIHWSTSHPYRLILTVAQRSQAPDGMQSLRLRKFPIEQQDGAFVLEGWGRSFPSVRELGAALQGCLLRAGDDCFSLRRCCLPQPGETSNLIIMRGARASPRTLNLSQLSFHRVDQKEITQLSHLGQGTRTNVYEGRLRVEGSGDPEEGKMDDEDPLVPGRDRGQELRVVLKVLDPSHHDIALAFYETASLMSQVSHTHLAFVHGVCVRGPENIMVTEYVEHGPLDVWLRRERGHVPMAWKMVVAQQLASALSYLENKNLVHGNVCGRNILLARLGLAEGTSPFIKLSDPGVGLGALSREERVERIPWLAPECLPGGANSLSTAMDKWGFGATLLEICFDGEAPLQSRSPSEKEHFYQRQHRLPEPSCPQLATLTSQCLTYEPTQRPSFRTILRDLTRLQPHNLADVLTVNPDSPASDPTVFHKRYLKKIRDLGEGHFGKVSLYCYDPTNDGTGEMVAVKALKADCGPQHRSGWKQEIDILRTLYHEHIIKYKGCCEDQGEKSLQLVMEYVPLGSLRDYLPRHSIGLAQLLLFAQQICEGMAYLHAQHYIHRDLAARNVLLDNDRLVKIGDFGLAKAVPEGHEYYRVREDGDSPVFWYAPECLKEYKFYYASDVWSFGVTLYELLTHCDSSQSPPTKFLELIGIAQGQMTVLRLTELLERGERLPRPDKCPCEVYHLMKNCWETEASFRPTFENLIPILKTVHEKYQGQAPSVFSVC

Structure (SMILES)	IC50 (TYK2; Table B1) [nM]	IC50 ([1]; Table B1) [nM]	IC50 ([3]; Table B1) [nM]	IC50 ([4]; Table B1) [nM]	IC50 (TYK2) [nM]	further results
CC(C)(C)OC(=O)N1CCN(Cc2ccc3cc2CCc2cccc(c2)Nc2ncc(Cl)c(n2)N3)CC1 [Example B221, tert-Butyl 4-{[6-chloro-2,4,8,22-tetraazatetracyclo[14.3.1.1(3,7).1(9,13)]docosa-1(20),3(22),4,6,9(21),10,12,16,18-nonaen-12-yl]methyl}piperazine-1-carboxylate bis(trifluoroacetate)]	43	59	12	19		ALK % of inhibition at a concentration of 500 nM or 1 mM [2, 5]: 8.1%
Cc1cc(C(=O)Nc2cc3cc(c2)OCCSc2cccc(c2)Nc2nc(ncc2Cl)N3)no1 [Example D58, N-[6-Chloro-17-oxa-14-thia-2,4,8,24-tetraazatetracyclo[16.3.1.1(3,7).1(9,13)]tetracosa-1(22),3(24),4,6,9(23),10,12,18,20-nonaen-20-yl]-5-methylisoxazole-3-carboxamide trifluoroacetate]						IC50 (TYK2; Table D1): 2.5 nM; IC50 ([1]; Table D1): 21 nM; IC50 ([2]; Table D1, 90 μM ATP): 490 nM; IC50 ([3]; Table D1): 6.5 nM; IC50 ([4]; Table D1): 1.3 nM
O=S1(=O)Nc2cccc(c2)Nc2nc(ncc2Cl)Nc2cccc1c2 [Example C6, 6-Chloro-15-thia-2,4,8,14,22-pentaazatetracyclo[14.3.1.1(3,7).1(9,13)]docosa-1(20),3(22),4,6,9(21),10,12,16,18-nonaene 15,15-dioxide trifluoroacetate]					240	IC50 [1]: 377 nM; IC50 [2]: > 10000 nM; IC50 [3]: 220 nM; IC50 [4]: 70 nM
O=S1(=O)Nc2cccc(c2)Nc2ncc(Cl)c(n2)Nc2cccc1c2 [Example C7, 6-Chloro-14-thia-2,4,8,15,22-pentaazatetracyclo[14.3.1.1(3,7).1(9,13)]docosa-1(20),3(22),4,6,9(21),10,12,16,18-nonaene 14,14-dioxide trifluoroacetate]					32	IC50 [1]: 82 nM; IC50 [2]: 1900 nM; IC50 [3]: 63 nM; IC50 [4]: 36 nM
Cc1ccccc1NC(=O)Nc1ccc2cc1CCc1cccc(c1)Nc1ncc(Cl)c(n1)N2 [Example B91, N-[6-Chloro-2,4,8,22-tetraazatetracyclo[14.3.1.1(3,7).1(9,13)]docosa-1(20), 3(22),4,6,9(21),10,12,16,18-nonaen-12-yl]-N′-(2-methylphenyl)urea trifluoroacetate]	13	28	2.1	2.7		IC50 [2, 11]: > 1000 nM
COc1ccccc1NC(=O)Nc1ccc2cc1CCc1cccc(c1)Nc1ncc(Cl)c(n1)N2 [Example B102, N-[6-Chloro-2,4,8,22-tetraazatetracyclo[14.3.1.1(3,7).1(9,13)]docosa-1(20), 3(22),4,6,9(21),10,12,16,18-nonaen-12-yl]-N′-(2-methoxyphenyl)urea trifluoroacetate]	8.9	33	2	3.8		ALK % of inhibition at a concentration of 500 nM or 1 mM [2, 5]: 54%

Further lines, with some results ahead:

IC50 (TYK2; Table B1) [nM]	IC50 ([1]; Table B1) [nM]	IC50 ([3]; Table B1) [nM]	IC50 ([4]; Table B1) [nM]	IC50 (TYK2) [nM]	Structure (SMILES)	further results
36	213	6	21		N#Cc1ccc(C(=O)N2CC[C@H](NC(=O)Nc3ccc4cc3CCc3cccc(c3)Nc3ncc(Cl)c(n3)N4)C2)cc1 [Example B235, N-[6-Chloro-2,4,8,22-tetraazatetracyclo[14.3.1.1(3,7).1(9,13)]docosa-1(20),3(22),4,6,9(21),10,12,16,18-nonaen-12-yl]-N′-[(3S)-1-(4-cyanobenzoyl)pyrrolidin-3-yl]urea trifluoroacetate]	ALK % of inhibition at a concentration of 500 nM or 1 mM [2, 5]: 7.3%
160	> 400	32	313		N#CC1(c2ccccc2)CCN(C(=O)Nc2ccc3cc2CCc2cncc(c2)Nc2ncc(Cl)c(n2)N3)CC1 [Example B322, N-[6-Chloro-2,4,8,18,22-pentaazatetracyclo[14.3.1.1(3,7).1(9,13)]docosa-1(20),3(22),4,6,9(21),10,12,16,18-nonaen-12-yl]-4-cyano-4-phenylpiperidine-1-carboxamide bis(trifluoroacetate)]	ALK % of inhibition at a concentration of 500 nM or 1 mM [2, 6]: 74%
				15	CCNC(=O)N1CCC(C(=O)Nc2ccc3cc2CCc2cccc(c2)Nc2ncc(Cl)c(n2)N3)CC1 [Example A59, N(4)-[6-Chloro-2,4,8,22-tetraazatetracyclo[14.3.1.1(3,7).1(9,13)]docosa-1(20),3(22),4,6,9(21),10,12,16,18-nonaen-12-yl]-N(1)-ethylpiperidine-1,4-dicarboxamide trifluoroacetate]	IC50 [1, 7]: 19 nM; ALK % of inhibition at a concentration of 500 nM or 1 mM [2, 8]: 39%; IC50 [3, 9]: 26 nM; IC50 [4, 10]: 6.9 nM
> 400	> 400	58	371		Cc1ncoc1C(=O)N1CCC(CN(C)Cc2ccc3cc2CCc2cncc(c2)Nc2ncc(Cl)c(n2)N3)CC1 [Example B347, 1-[6-Chloro-2,4,8,18,22-pentaazatetracyclo[14.3.1.1(3,7).1(9,13)]docosa-1(20),3(22),4,6,9(21),10,12,16,18-nonaen-12-yl]-N-methyl-N-({1-[(4-methyl-1,3-oxazol-5-yl)carbonyl]piperidin-4-yl}methyl)methanamine tris(trifluoroacetate)]	ALK % of inhibition at a concentration of 500 nM or 1 mM [2, 6]: 45%
5.3	5.1	2.4	2.4		O=C(Nc1ccc2cc1CCc1cccc(c1)Nc1ncc(Cl)c(n1)N2)c1ccoc1 [Example B59, N-[6-Chloro-2,4,8,22-tetraazatetracyclo[14.3.1.1(3,7).1(9,13)]docosa-1(20), 3(22),4,6,9(21),10,12,16,18-nonaen-12-yl]-3-furamide trifluoroacetate]	IC50 [2, 11]: 700 nM
				> 200	N#Cc1ccc(S(=O)(=O)N2CCC(CC(=O)Nc3ccc4cc3CCc3cccc(c3)Nc3ncc(Cl)c(n3)N4)CC2)cc1 [Example A209, N-[6-Chloro-2,4,8,22-tetraazatetracyclo[14.3.1.1(3,7).1(9,13)]docosa-1(20),3(22),4,6,9(21),10,12,16,18-nonaen-12-yl]-2-{1-[(4-cyanophenyl)sulfonyl]piperidin-4-yl}acetamide trifluoroacetate]	IC50 [1, 7]: > 200 nM; ALK % of inhibition at a concentration of 500 nM or 1 mM [2, 8]: 19%; IC50 [3, 9]: 60 nM; IC50 [4, 10]: 120 nM
				> 200	O=C(CC1CCN(C(=O)c2cccnc2)CC1)Nc1ccc2cc1CCc1cncc(c1)Nc1ncc(Cl)c(n1)N2 [Example A188, N-[6-Chloro-2,4,8,18,22-pentaazatetracyclo[14.3.1.1(3,7).1(9,13)]docosa-1(20),3(22),4,6,9(21),10,12,16,18-nonaen-12-yl]-2-[1-(pyridin-3-ylcarbonyl)piperidin-4-yl]acetamide tris(trifluoroacetate)]	IC50 [1, 7]: > 200 nM; ALK % of inhibition at a concentration of 500 nM or 1 mM [2, 8]: 26%; IC50 [3, 9]: 34 nM; IC50 [4, 10]: > 200 nM
1.7	2.6	0.96	0.44		O=C(Nc1ccc2cc1CCc1cccc(c1)Nc1ncc(Cl)c(n1)N2)c1cccc(F)c1 [Example B48, N-[6-Chloro-2,4,8,22-tetraazatetracyclo[14.3.1.1(3,7).1(9,13)]docosa-1(20), 3(22),4,6,9(21),10,12,16,18-nonaen-12-yl]-3-fluorobenzamide trifluoroacetate]	IC50 [2, 11]: 160 nM
